Measured values reported in the NIST ThermoML archive (doi:10.1016/j.jct.2019.04.009).

Assay: mn = molality of the nth substance listed, in mol/kg
Settings: Liquid, Vibrating tube method

NC(N)=O [urea] + O
298.15 K, 100 kPa
Settings	mass density [kg/m3]
m1 = 0.1001	998.63
m1 = 0.1999	1000.2
m1 = 0.3	1001.75
m1 = 0.4	1003.29
m1 = 0.5001	1004.81

NC(N)=O [urea] + OCCO
mass density [kg/m3], 99.6 kPa
Settings	288.15 K	298.15 K	308.15 K	318.15 K	328.15 K
m1 = 0.0551	1117.63	1110.69	1103.68	1096.6	1089.43
m1 = 0.1487	1118.67	1111.72	1104.7	1097.61	1090.44
m1 = 0.3264	1120.61	1113.63	1106.59	1099.51	1092.34
m1 = 0.446	1121.88	1114.89	1107.84	1100.77	1093.59
m1 = 0.495	1122.39	1115.41	1108.35	1101.28	1094.1
m1 = 0.6616	1124.11	1117.13	1110.06	1103	1095.82
m1 = 0.8791	1126.28	1119.33	1112.26	1105.19	1098.01
m1 = 1.072	1128.14	1121.24	1114.15	1107.09	1099.92
m1 = 1.208	1129.41	1122.55	1115.46	1108.4	1101.23
m1 = 1.357	1130.76	1123.96	1116.88	1109.83	1102.66
m1 = 1.523	1132.23	1125.51	1118.42	1111.4	1104.22
